For the assay, the target named is PDGFβ (Homo sapiens (Human), UniProt P09619). Kind of assay: PDGF stimulated Ca2+ signal in vitro (FLIPR, NHDF-Ad); PDGFβ cellular. Format: cell-based. Conditions: PDGF 10 ng/mL, amide linker compounds. As for the experimental part: Automated FLIPR (Fluorometric Imaging Plate Reader) technology was used to screen for inhibitors of PDGF induced increases in intracellular calcium levels in fluorescent dye loaded […] cells. NHDF-Ad (Normal human dermal fibroblasts) (Lonza) were seeded in 384-well fibronectin coated black-walled plates overnight at 37° C./5% CO2. […] Cells were washed 4 times (ELx405-CW, Bio-Tek) to remove extracellular dye.
Sequence of PDGFβ (P09619 33-1106): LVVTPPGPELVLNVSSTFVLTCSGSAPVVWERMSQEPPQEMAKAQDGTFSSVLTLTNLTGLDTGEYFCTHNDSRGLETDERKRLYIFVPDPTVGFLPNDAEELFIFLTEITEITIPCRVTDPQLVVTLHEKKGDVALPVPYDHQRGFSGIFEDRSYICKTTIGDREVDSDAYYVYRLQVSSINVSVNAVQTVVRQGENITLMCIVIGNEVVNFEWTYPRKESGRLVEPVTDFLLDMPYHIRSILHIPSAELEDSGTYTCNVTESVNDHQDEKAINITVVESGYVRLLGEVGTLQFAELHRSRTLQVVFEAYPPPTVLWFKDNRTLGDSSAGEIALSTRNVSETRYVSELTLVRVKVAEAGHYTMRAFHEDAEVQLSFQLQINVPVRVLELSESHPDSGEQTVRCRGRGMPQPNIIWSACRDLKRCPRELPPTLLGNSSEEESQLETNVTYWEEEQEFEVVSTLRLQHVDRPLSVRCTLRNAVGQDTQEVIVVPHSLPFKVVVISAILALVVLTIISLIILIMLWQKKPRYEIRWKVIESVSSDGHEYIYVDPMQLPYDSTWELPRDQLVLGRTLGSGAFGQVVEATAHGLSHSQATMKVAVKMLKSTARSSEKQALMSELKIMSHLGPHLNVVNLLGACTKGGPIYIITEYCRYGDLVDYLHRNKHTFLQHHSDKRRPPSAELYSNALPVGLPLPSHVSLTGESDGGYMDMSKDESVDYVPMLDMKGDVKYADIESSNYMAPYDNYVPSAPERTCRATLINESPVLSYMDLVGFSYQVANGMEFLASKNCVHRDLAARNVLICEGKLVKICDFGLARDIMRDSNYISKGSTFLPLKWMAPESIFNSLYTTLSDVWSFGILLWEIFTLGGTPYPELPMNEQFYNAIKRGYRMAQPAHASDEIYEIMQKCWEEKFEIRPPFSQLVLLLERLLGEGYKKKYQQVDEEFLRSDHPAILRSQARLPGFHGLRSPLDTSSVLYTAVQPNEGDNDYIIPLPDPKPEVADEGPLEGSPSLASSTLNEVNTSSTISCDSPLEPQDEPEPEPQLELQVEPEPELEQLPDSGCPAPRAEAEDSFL

With “2,3-dihydroxypropyl 5-(4-{3-[(3-methyl-2-furoyl)amino]phenoxy}pyridin-2-yl)-1H-pyrrole-3-carboxylate [Example 21]”, the IC50 (as a rule, the concentration that gives 50% inhibition) was determined as 39 nM.

Source of the values: patent publication US9725433B2, “Compounds as tyrosine kinase modulators” (Allergan, Inc., priority 2009, dated 2017).
